Source: US9206130B2, “Quinoline derivatives as AXL kinase inhibitors” (Max-Planck-Gesellschaft zur Förderung der Wissenschaften …, priority 2008, dated 2015)

What was measured:
[1] = target: T1, wild type AXL (wtAXL) receptor tyrosine kinase (Homo sapiens, UniProt P30530); test: NIH-3T3-AXL cellular tyrosine kinase assay (inhibition of AXL phosphorylation); format: cell-based; settings: AXL phosphorylation in NIH-3T3-AXL (clone 22) cells, serum-depleted, 2 h with compound, immunoprecipitation / anti-phosphotyrosine blot
T1 construct: WtAXL cDNA was cloned into vector pLXSN(ESK) and transfected into Phoenix E packaging cells; expressed in transfected cells; host or cells: NIH3T3 N7 mouse fibroblasts, retrovirally infected (clone 22)
T1 sequence (P30530 26-894): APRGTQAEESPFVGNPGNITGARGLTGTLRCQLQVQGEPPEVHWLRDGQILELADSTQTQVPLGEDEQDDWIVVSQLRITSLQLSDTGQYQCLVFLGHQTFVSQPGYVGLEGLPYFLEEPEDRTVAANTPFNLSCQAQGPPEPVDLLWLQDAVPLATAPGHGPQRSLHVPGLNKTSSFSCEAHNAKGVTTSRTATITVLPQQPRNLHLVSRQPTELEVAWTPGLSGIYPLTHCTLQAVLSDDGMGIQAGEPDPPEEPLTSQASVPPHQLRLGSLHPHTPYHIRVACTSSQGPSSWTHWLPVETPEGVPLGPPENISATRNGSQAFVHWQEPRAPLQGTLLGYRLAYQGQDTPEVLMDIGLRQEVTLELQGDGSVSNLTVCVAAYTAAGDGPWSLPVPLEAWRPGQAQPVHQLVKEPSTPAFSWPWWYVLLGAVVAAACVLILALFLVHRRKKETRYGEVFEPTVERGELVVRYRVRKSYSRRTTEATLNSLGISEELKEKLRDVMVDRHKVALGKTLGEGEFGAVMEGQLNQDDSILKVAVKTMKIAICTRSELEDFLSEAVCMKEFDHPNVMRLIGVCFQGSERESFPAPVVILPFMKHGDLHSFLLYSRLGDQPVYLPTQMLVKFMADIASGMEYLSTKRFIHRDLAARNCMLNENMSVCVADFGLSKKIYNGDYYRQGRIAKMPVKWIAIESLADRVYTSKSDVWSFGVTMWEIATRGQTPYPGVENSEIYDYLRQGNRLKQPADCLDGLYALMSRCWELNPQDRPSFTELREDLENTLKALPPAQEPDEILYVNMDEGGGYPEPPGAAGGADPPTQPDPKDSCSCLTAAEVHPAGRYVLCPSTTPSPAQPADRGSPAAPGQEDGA
In short: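 NIH3T3 clones stably expressing human wtAXL (puromycin-selected) were exposed to serially diluted compounds for 2 h. AXL was immunoprecipitated from lysates with anti-AXL antibody, and phosphorylation detected by anti-phosphotyrosine (4G10) western blot with ECL.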

Row | melting point | IC50 [1] | Compound
1 | 239 to 240 °C | 1.68 µM | COc1cc2nccc(Oc3ccc(NS(=O)(=O)c4cc(F)ccc4F)cc3C)c2cc1OC [Example A131, N-[4-(6,7-Dimethoxy-quinolin-4-yloxy)-3-methyl-phenyl]-2,5-difluoro-benzenesulfonamide]
2 | 170 to 172 °C | > 10 µM | Cc1cc(Oc2ccc(NS(=O)(=O)c3ccc(Cl)s3)cc2)c2cc(F)ccc2n1 [Example B18, 5-Chloro-thiophene-2-sulfonic acid [4-(6-fluoro-2-methyl-quinolin-4-yloxy)-phenyl]-amide]
3 | 151 to 153 °C | > 10 µM | Cc1cc(Oc2ccc(NS(=O)(=O)c3ccc(C)s3)c(F)c2)c2cc(F)ccc2n1 [Example B7, 5-Methyl-thiophene-2-sulfonic acid [2-fluoro-4-(6-fluoro-2-methyl-quinolin-4-yloxy)-phenyl]-amide]
4 | 223 to 225 °C | > 10 µM | Cc1cc(Oc2ccc(NS(=O)(=O)c3cccc4ccccc34)cc2)c2cc(F)ccc2n1 [Example B20, Naphthalene-1-sulfonic acid [4-(6-fluoro-2-methyl-quinolin-4-yloxy)-phenyl]-amide]
5 | 236 to 238 °C | > 10 µM | COc1cc2nccc(Oc3ccc(NS(=O)(=O)c4cc(Cl)c(C)cc4OC)cc3)c2cc1OC [Example A69, 5-Chloro-N-[4-(6,7-dimethoxy-quinolin-4-yloxy)-phenyl]-2-methoxy-4-methyl-benzenesulfonamide]
6 | 223 to 224 °C | 4.5 µM | COc1cc2nccc(Oc3ccc(NS(=O)(=O)c4cccc(C#N)c4)c(F)c3)c2cc1OC [Example A1, 3-Cyano-N-[4-(6,7-dimethoxy-quinolin-4-yloxy)-2-fluoro-phenyl]-benzenesulfonamide]
7 | 195 to 196 °C | > 10 µM | Cc1cc(Oc2ccc(NS(=O)(=O)c3ccsc3)cc2)c2cc(F)ccc2n1 [Example B16, Thiophene-3-sulfonic acid [4-(6-fluoro-2-methyl-quinolin-4-yloxy)-phenyl]-amide]
8 | 248 to 250 °C | > 10 µM | COc1cc2nccc(Oc3ccc(NS(=O)(=O)c4ccc(Cl)cc4F)c(C)c3)c2cc1OC [Example A153, 4-Chloro-N-[4-(6,7-dimethoxy-quinolin-4-yloxy)-2-methyl-phenyl]-2-fluoro-benzenesulfonamide]
9 | 267 to 270 °C | > 3 µM | COc1cc2nccc(Oc3ccc(NS(=O)(=O)c4csc5ccccc45)cc3)c2cc1OC [Example A84, Benzo[b]thiophene-3-sulfonic acid [4-(6,7-dimethoxy-quinolin-4-yloxy)-phenyl]-amide]
10 | 189 to 190 °C | 0.057 µM | COc1cc2c(Oc3ccc(NS(=O)(=O)c4ccc(OC)c5ccccc45)cc3F)ccnc2cc1OCCN1CCOCC1 [Example D13, 4-Methoxy-naphthalene-1-sulfonic acid {3-fluoro-4-[6-methoxy-7-(2-morpholin-4-yl-ethoxy)-quinolin-4-yloxy]-phenyl}-amide]
11 | 217 to 219 °C | 3.4 µM | COc1cc2nccc(Oc3ccc(NS(=O)(=O)c4ccc(F)c(F)c4)c(F)c3)c2cc1OC [Example A3, N-[4-(6,7-Dimethoxy-quinolin-4-yloxy)-2-fluoro-phenyl]-3,4-difluoro-benzenesulfonamide]
12 | 140 to 143 °C | 0.347 µM | COc1cc2c(Oc3ccc(NS(=O)(=O)c4cccc5ccccc45)cc3F)ccnc2cc1OCCCN1CCC(C)CC1 [Example D21, Naphthalene-1-sulfonic acid (3-fluoro-4-{6-methoxy-7-[3-(4-methyl-piperidin-1-yl)-propoxy]-quinolin-4-yloxy}-phenyl)-amide]
13 | 128 to 130 °C | > 10 µM | COc1ccc(S(=O)(=O)Nc2ccc(Oc3cc(C)nc4c(C(F)(F)F)cccc34)c(F)c2)cc1F [Example C09, 3-Fluoro-N-[3-fluoro-4-(2-methyl-8-trifluoromethyl-quinolin-4-yloxy)-phenyl]-4-methoxy-benzenesulfonamide]
14 | 113 to 117 °C | 0.48 µM | COc1cc2nccc(Oc3ccc(NS(=O)(=O)c4cc(Cl)cc(Cl)c4O)cc3C)c2cc1OC [Example A79, 3,5-Dichloro-N-[4-(6,7-dimethoxy-quinolin-4-yloxy)-3-methyl-phenyl]-2-hydroxy-benzenesulfonamide]
15 | 144 to 147 °C | > 3 µM | COc1cc2nccc(Oc3ccc(NS(=O)(=O)c4ccc(Br)c(Cl)c4)cc3F)c2cc1OC [Example A124, 4-Bromo-3-chloro-N-[4-(6,7-dimethoxy-quinolin-4-yloxy)-3-fluoro-phenyl]-benzenesulfonamide]
16 | 110 to 113 °C | > 10 µM | COc1cc2nccc(Oc3ccc(NS(=O)(=O)c4ccc(Br)c(Cl)c4)cc3OC)c2cc1OC [Example A122, 4-Bromo-3-chloro-N-[4-(6,7-dimethoxy-quinolin-4-yloxy)-3-methoxy-phenyl]-benzenesulfonamide]
17 | 226 to 228 °C | 0.89 µM | COc1cc2nccc(Oc3ccc(NS(=O)(=O)c4ccc(Br)cc4OC(F)(F)F)cc3F)c2cc1OC [Example A146, 4-Bromo-N-[4-(6,7-dimethoxy-quinolin-4-yloxy)-3-fluoro-phenyl]-2-trifluoromethoxy-benzenesulfonamide]
18 | 206 to 208 °C | > 10 µM | COc1cc2nccc(Oc3ccc(NS(=O)(=O)c4ccc(-c5cnco5)s4)c(F)c3)c2cc1OC [Example A37, 5-Oxazol-5-yl-thiophene-2-sulfonic acid [4-(6,7-dimethoxy-quinolin-4-yloxy)-2-fluoro-phenyl]-amide]
19 | 105 to 107 °C | > 1 µM | COc1cc2nccc(Oc3ccc(NS(=O)(=O)c4cccc(-c5ncccn5)c4)cc3F)c2cc1OC [Example A101, N-[4-(6,7-Dimethoxy-quinolin-4-yloxy)-3-fluoro-phenyl]-3-pyrimidin-2-yl-benzenesulfonamide]
20 | 193 to 196 °C | 0.783 µM | COc1cc2c(Oc3ccc(NS(=O)(=O)c4ccccc4C#N)cc3F)ccnc2cc1OCCN1CCOCC1 [Example D27, 2-Cyano-N-{3-fluoro-4-[6-methoxy-7-(2-morpholin-4-yl-ethoxy)-quinolin-4-yloxy]-phenyl}-benzenesulfonamide]
21 | 128 to 131 °C | > 10 µM | COc1cc2nccc(Oc3ccc(NS(=O)(=O)c4ccc(-c5ccccc5)cc4)cc3OC)c2cc1OC [Example A142, Biphenyl-4-sulfonic acid [4-(6,7-dimethoxy-quinolin-4-yloxy)-3-methoxy-phenyl]-amide]
22 | 127 to 130 °C | > 3 µM | COc1cc2c(Oc3ccc(NS(=O)(=O)c4ccccc4C(F)(F)F)c(C)c3)ccnc2cc1OCCN1CCOCC1 [Example D11, N-{4-[6-Methoxy-7-(2-morpholin-4-yl-ethoxy)-quinolin-4-yloxy]-2-methyl-phenyl}-2-trifluoromethyl-benzenesulfonamide]
23 | 213 to 215 °C | > 3 µM | COc1cc2nccc(Oc3ccc(NS(=O)(=O)c4ccccc4OC)c(F)c3)c2cc1OC [Example A52, N-[4-(6,7-Dimethoxy-quinolin-4-yloxy)-2-fluoro-phenyl]-2-methoxy-benzenesulfonamide]
24 | 202 to 204 °C | > 3 µM | COc1cc2nccc(Oc3ccc(NS(=O)(=O)c4ccc(Oc5ccccc5)cc4)c(F)c3)c2cc1OC [Example A57, N-[4-(6,7-Dimethoxy-quinolin-4-yloxy)-2-fluoro-phenyl]-4-phenoxy-benzenesulfonamide]
25 | 225 to 227 °C | > 1 µM | COc1cc2nccc(Oc3ccc(NS(=O)(=O)c4ccccc4Br)c(F)c3)c2cc1OC [Example A55, 2-Bromo-N-[4-(6,7-dimethoxy-quinolin-4-yloxy)-2-fluoro-phenyl]-benzenesulfonamide]
26 | 183 to 184 °C | < 1 µM | Cc1cc(Oc2ccc(NS(=O)(=O)c3cccc(Br)c3)cc2)c2cc(F)ccc2n1 [Example B14, 3-Bromo-N-[4-(6-fluoro-2-methyl-quinolin-4-yloxy)-phenyl]-benzenesulfonamide]
27 | 171 to 173 °C | > 10 µM | Cc1cc(Oc2ccc(NS(=O)(=O)c3c(Cl)cccc3Cl)c(F)c2)c2cccc(C(F)(F)F)c2n1 [Example C06, 2,6-Dichloro-N-[2-fluoro-4-(2-methyl-8-trifluoromethyl-quinolin-4-yloxy)-phenyl]-benzenesulfonamide]
